{
  "source": "paper PMC7948482",
  "about": "“Erythrocytes efficiently utilize exogenous sphingosines for S1P synthesis and export via Mfsd2b” (The Journal of Biological Chemistry, 2021)",
  "target": "T1, Mfsd2b (Mus musculus, UniProt Q3T9M1)",
  "T1 construct": "full-length native transporter in isolated mouse erythrocytes; Mfsd2b knockout erythrocytes as control",
  "T1 sequence (Q3T9M1 1-494)": "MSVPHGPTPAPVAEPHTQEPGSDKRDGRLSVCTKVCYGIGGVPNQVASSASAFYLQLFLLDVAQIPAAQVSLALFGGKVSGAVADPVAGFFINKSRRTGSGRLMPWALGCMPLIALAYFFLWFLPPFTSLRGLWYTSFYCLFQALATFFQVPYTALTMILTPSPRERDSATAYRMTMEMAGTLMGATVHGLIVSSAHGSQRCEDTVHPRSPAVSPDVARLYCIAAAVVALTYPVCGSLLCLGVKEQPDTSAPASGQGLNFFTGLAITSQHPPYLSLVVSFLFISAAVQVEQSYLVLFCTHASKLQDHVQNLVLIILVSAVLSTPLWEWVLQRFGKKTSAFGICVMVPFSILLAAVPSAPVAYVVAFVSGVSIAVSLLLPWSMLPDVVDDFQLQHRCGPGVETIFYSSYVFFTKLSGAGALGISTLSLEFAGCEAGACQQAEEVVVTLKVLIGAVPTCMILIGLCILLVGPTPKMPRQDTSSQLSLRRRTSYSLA",
  "test": "[[…]-3H]-S1P export, WT versus Mfsd2b KO erythrocytes",
  "type": "cell-based",
  "conditions": "S1P formed inside from [3-3H]-Sph; 0.5% BSA acceptor; pH 7.4; labelled compound",
  "data": [
    {"smiles": "CCCCCCCCCCCCC/C=C/[C@@H](O)[C@@H](N)COP(=O)(O)O", "note": "[S1P]", "values": [
      {"measurement": "[3-3H]-S1P export, WT versus Mfsd2b KO erythrocytes", "result": "Mfsd2b KO erythrocytes showed a significant reduction of S1P transport"}
    ]}
  ]
}
